# Entries after “also recorded” stand apart in the source; their conditions may differ.
# Tests used:
# [1] = test system: bone marrow mononuclear cells (BM-MNCs); assay: Cobblestone area-forming cell (CAFC) assay; assay type: cell-based, mice; details: daily oral gavage for 2 days prior to bone marrow harvest
# Experimental: CAFCs are per 1×10^5 bone marrow mononuclear cells (BM-MNCs). Error bars are +/− the standard error of the mean of pooled samples measured in duplicate.
# Cobblestone Area-forming Cell (CAFC) Assay: The CAFC assay was performed as described previously. See Meng et al., Cancer Res., 63, 5414-5419 (2003). Briefly, bone marrow was harvested from femurs and tibias of mice and centrifuged to purify BM-MNCs. The frequencies of CAFC were determined at weekly intervals (on day 7, 14, and 35). Wells were scored positive if at least one phase-dark hematopoietic clone (containing 5 or more cells) was seen. The frequency of CAFC was then calculated by using Poisson statistics as described.
# [2] = test system: bone marrow cells; assay: Bone marrow cellularity, immunophenotypic frequency, apoptosis and viability; assay type: in vivo, mice; details: 48 hour treatment
# Experimental: For HSPC proliferation experiments, mice received daily oral gavage with PD0332991 for 2 days with 1 mg BrdU intraperitoneal injection every 6 hours for 24 hours prior to sacrifice. BM-MNC harvest and immunophenotyping was performed using RBC lysis, biotin-conjugated Lin-panel incubation (Invitrogen Corporation, Carlsbad, Calif., United States of America), paramagnetic bead-conjugated straptavidin (Miltinyi Biotec, Bergisch Gladbach, Germany) incubation, and magnetic depletion using an AutoMACS (Miltinyi Biotec, Bergisch Gladbach, Germany). At least 2×10^6 Lin-depleted cells per mouse were incubated with fluorescently labeled antibodies against cell surface antigens used to identify hematopoietic progenitor subpopulations as previously described (see Passegue et al., J. Exp. Med., 202, 1599-1611 (2005); and Kiel et al., Cell, 121, 1109-1121 (2005): CD34-FITC, CD16/32-PacificBlue, IL7Ra-PE-Cy5, and cKit-APC-Alexa750 from eBiosciences, Inc. (San Diego, Calif., United States of America); Sca1-PE-Cy7, CD150-PE-Cy5, and CD48-PacificBlue from BioLegend (San Diego, Calif., United States of America); and Aqua Live/Dead viability dye (Invitrogen Corporation, Carlsbad, Calif., United States of America). Streptavidin-PE-TexasRed (Invitrogen Corporation, Carlsbad, Calif., United States of America) was used to confirm efficiency of lineage-depletion. After cell surface staining, cells were fixed, permeabilized, and stained with antibodies against Ki67-FITC, BrdU-APC, and caspase3-PE (BD Biosciences Pharmingen, San Diego, Calif., United States of America).
# In all experiments, gating based on isotype controls was used as appropriate. Flow cytometry was performed using a CyAn ADP (Dako, Glostrup, Denmark) and analyzed with FlowJo software (Tree Star, Ashland, Oreg., United States of Ameria). For each bone marrow sample, a minimum of 200,000 cells were analyzed. For cell culture samples, a minimum of 20,000 cells were analyzed.
# The effects on immunophenotypic HSPC frequency were validated by other methods.
# [3] = test system: TyrRAS+Ink4a/Arf−/− melanoma; assay: Tumor growth in Tyr-RAS+Ink4a/Arf−/− melanoma GEMM under daily treatment; assay type: in vivo, mice
# From the text: Animals: All mice were housed in accord with the University of North Carolina at Chapel Hill (UNC-CH) Institutional Animal Care and Use Committee. Young adult (6-12 weeks of age), virgin female C57B1/6 mice were purchased from Jackson Labs (Bar Harbor, Me., United States of America). C3H mice were obtained from Harlan Sprague-Dawley Inc. (Indianapolis, Ind., United States of America). Experiments on tumor-bearing TyrRAS+Ink4a/Arf−/− mice (see Chin et al., Genes & development, 11, 2822-2834 (1997)) were performed in animals fully backcrossed (N>10) to the FVB/n background. Mice were treated as previously described (see Ramsey et al., Cancer Res., 67, 4732-4741 (2007)) with PD 0332991 obtained from Pfizer Inc., (New York, N.Y., United States of America) given by oral gavage at a dose of 150 mg/kg body weight. TyrRAS+Ink4a/Arf−/− mice were serially observed until tumor development. When tumors were about 0.2 cm^2 in size, daily PD 0332991 treatment was begun. The data shown in FIGS. 2B and 2D were normalized to tumor size at the time of therapy initiation. Tumor-bearing mice were euthanized at the indicated times for morbidity, tumor ulceration, or tumor size >1.5 cm in diameter.
# See Walker et al., Genes Chromosomes Cancer, 22, 157-163 (1998); and Daniotti et al., Oncogene, 23, 5968-5977 (2004). […]
compound,measurement,setting,value
"CC(=O)c1c(C)c2cnc(Nc3ccc(N4CCNCC4)cn3)nc2n(C2CCCC2)c1=O [PD0332991, 6-acetyl-8-cyclopentyl-5-methyl-2-(5-piperazin-1-yl-pyridin-2-ylamino)-8H-pyrido-[2,3-d]-pyrimidin-7-one]",in vivo HSPC number (CAFC),[1],did not decrease in vivo HSPC number
same,HSC and MPP frequencies,[2],relative increase; also recorded: relative enrichment
same,Lin− or HSC apoptosis or viability,[2],without altering
same,absolute number of lineage negative cells,[2],did decrease
same,frequency of oligopotent progenitors (Lin−cKit+Sca1−),[2],declined
same,total marrow cellularity,[2],did not decrease
same,mice that developed new tumors while receiving treatment,"[3]; 150 mg/kg daily, in the 8-16 days",two of five
same,growth of established tumors,"[3]; 150 mg/kg oral gavage daily, tumor-bearing Tyr-RAS+Ink4a/Arf−/− mice",no regression or decrease in tumor growth; also recorded: insensitive

# From patent publication US20110224221A1, “HEMATOPOIETIC PROTECTION AGAINST IONIZING RADIATION USING SELECTIVE CYCLIN-DEPENDENT KINASE 4/6 INHIBITORS” (priority 2008, published 2011)
